Patent US20060121441A1, “Methods of determining the effect of an agent on diploid cells and/or on the pattern of expression of polypeptides expressed therewith” (priority 2002, published 2006)

Tests used:
Type in all cases: cell-based, Aplysia californica
[1] = system: EB3 association with MTs; assay: Confocal imaging of EGFP-EB3 and microtubules in cultured neurons; conditions: EGFP-EB3-expressing neurons
Description: (§1) Cell culture—Neurons B1 and B2 from buccal ganglia, MCn neurons from the metacerebral ganglion, sensory neurons from the pleuropeadal ganglion and LUQs from the abdominal ganglion of Aplysia californica were isolated and maintained in culture as previously described [Schacher and Proshansky, (1983); Spira et al., (1993, 1996)].
Expression constructs—Enzymes were obtained from (New England Biolabs, Beverly, Mass., USA). Each of the chimeric cDNAs of EGFP-EB3, EGFP-p50 and EGFP-MLIV was subcloned into the pCS2+ expression vector as described below [Rupp (1994); Turner and Weintraub (1994)]. For EGFP-EB the pCS2+ vector was cut with XhoI and SnaB. The insert (EGFP-EB3) was cut with NotI, fill in and cut with SalI. For EGFP-P50 the pCS2+ vector was cut with XbaI and the insert was cut with NheI and SpeI.
In-vitro transcription—5′-capped and 3′-polyadenylated mRNA was in vitro transcribed using recombinant in vitro transcription system (Promega, Madison, Wis., USA,). 10 μg of NotI-linearized pCS2+ was used as a template to transcribe capped mRNA. The transcription reaction was effected with RiboMax-sp6 kit (Promrga-P1280). Briefly, a reaction mixture was prepared by mixing 8 μl Transcription ×5 Buffer, 8 μl rNTPs mix containing 25 mM CTP, ATP, UTP and 12 mM GTP, 4 μl of 15 mM Cap analog (Roche 85846029), 1 μl of 40 units rRnasin (Promega N251A), 4 μl enzyme mix and 1-2 μg linear plasmid. Final reaction volume was compensated to 40 μl. […]
Mag-fura-2 Ca^2+ imaging—To study the local effect of elevated calcium levels on the distribution of a given fluorescentlly labled protein ratio imaging of the free intracellular calcium concentration was effected by mag fura-2. […] The fluorescence microscopy system consisted of a Zeiss Axiovert microscope equipped with a 75 W Xenon arc lamp, a Zeiss 40×0.75 NA Plan-Neofluar objective, 340±5 nm and 380±5 nm bandpass excitation filters set in a computer-controlled, Lambda10 position filter changer (Sutter, Novato Calif.), a dichroic mirror with a cut-off threshold of 505 nm and a 545±25 nm band pass emission filter. […]

[2] = system: actin bundles at the leading edge of growth cones; assay: Confocal imaging of EGFP-actin bundles in growth cones of cultured neurons injected with mRNA encoding EGFP-actin
Description: as §1
EGFP cDNA was amplified from pEGFP-N1 vector (Clontech, Palo-Alto, Calif., USA) by polymerase chain reaction (PCR) with two specific primers: 5′-GGCCATGGTGAGCAAGG-3′ and 5′-CTTGTACAGCTCGTCCATG-3′(Genset Oligos) (SEQ ID NOs: 1 and 2, respectively). The PCR product was digested with HindII and SmaI and subcloned into corresponding sites of Bluescript II SK (Stratagen, La Jolla, Calif.). Aplysia actin provided by Dr DesGrosiller (Montreal University, Canada) was amplified by PCR from Bluescript containing the actin cDNA using two specific primers: 5′-ATGTGTGACGACGATGTT-3′ and 5′-TTAGAAGCACTTGCGGTCG-3′ (SEQ ID NOs: 3 and 4, respectively) with SmaI and XbaI restriction sites at their 5′ ends. Following digestion, the PCR product was subcloned in-frame with EGFP into the previously prepared pBluescript-EGFP vector linearized with SmaI and XbaI. The EGFP-Actin fragment was then cut out from pBluescript with ClaI and XbaI and subcloned into corresponding sites of pCS2+ vector [Rupp (1994); Turner and Weintraub (1994) supra]. […]

[3] = system: microtubules; assay: Confocal imaging of EGFP-tubulin labelled microtubules in axotomy-induced growth cone of cultured neurons
Description: mRNA microinjection—mRNA was injected into the cytoplasm of Aplysia neurons bathed in ASW 8-48 hours following plating. 0.5-5 μg/μl mRNA in 80 mM KCl was used for injection. Injection was performed by pressure using Medical System Corp microinjector inserted into the cell body under visual control. Approximately up to 10% of the cell's body volume was injected. […] Good penetration was indicated by a resting potential of >−35 mV and measuring a typical input resistance. At the end of the injection, the micropipette tip was pooled out gently of the neuron. Cells were imaged for protein expression 12-48 hours following injection.
Axotomy—Axonal transection was performed by applying pressure on the axon with the thin shaft of a micropipette under visual control, as previously described [Spira et al., 1993, 1996; Ziv and Spira, (1993)].

C[C@H](CCC(=O)O)C[C@H](C)C[C@H](C)C(=O)/C=C(\O)[C@H](C)C[C@H](C)C/C=C/[C@@H](C)[C@@H](O)[C@@H](C)[C@@H](O)C[C@@H]1CC[C@@](C)([C@H]2CC[C@@](C)([C@@H](C)O)O2)O1 [ionomycin]
mimicry of the axotomy-induced MT depolymerization/repolymerization and vesicle trap process by local elevation of [Ca2+]i ([1]; local application): able to mimic the process

C=C1[C@@H](C)[C@H]2[C@H](Cc3ccccc3)NC(=O)[C@]23OC(=O)/C=C/[C@H](O)CCC[C@@H](C)C/C=C/[C@H]3[C@@H]1O [cytochalasin B]
effect on EGFP labeled actin bundles at the leading edge of growth cones ([2]; cultured B1 neuron, nine minutes following bath application of 2 mM): actin bundles disassembly and the formation of small actin aggregates within the collapsed growth cones and the axoplasm
depolymerisation of fluorescent actin bundles after application ([2]; growth cone formed after axotomy, FIGS. 3a-b): depolymerised within minutes

CCCC[C@@H](C=O)NC(=O)[C@H](CC(C)C)NC(=O)OCc1ccccc1 [calpeptin]
effect on MTs and EB3 association with MTs [1]: induces milled dissociation of EB3 from the MTs

COC(=O)Nc1nc2ccc(C(=O)c3cccs3)cc2[nH]1 [nocodazole]
effect on EGFP-tubulin microtubules in growth cone lamellipodium ([3]; bath application 5 mM for 5 min): depolymerisation of most microtubules
effect on EGFP labelled microtubules within growth cone ([3]; cultured B1 neuron, twenty three minutes following bath application of 5 mM): microtubules depolymerise
effect on MTs and EB3 association with MTs [1]: induces MTs deplymerization and dissociation of EB3 from the MTs
